T1: arachidonic acid-binding heteromer (non-covalent complex of two MRP8 sub-units, SEQ ID NOs: 1-2, and one MRP14 sub-unit, SEQ ID NOs: 3-4; approx. 34 kDa), isola (Homo sapiens, UniProt P05109+P06702)
T1 construct: conventional steps of protein extraction from biological tissues, more specifically from skin tissues; from tissue; host or cells: psoriasis scales (human keratinocytes), membrane pellet extracted with KCl buffer
T1 sequence (P05109 1-93) 1: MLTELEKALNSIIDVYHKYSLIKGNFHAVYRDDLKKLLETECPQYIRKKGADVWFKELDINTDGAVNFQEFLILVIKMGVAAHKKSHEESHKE
T1 sequence (P05109 1-93) 2: T1 sequence (P05109 1-93) 1
T1 sequence (P06702 2-114 limits assumed): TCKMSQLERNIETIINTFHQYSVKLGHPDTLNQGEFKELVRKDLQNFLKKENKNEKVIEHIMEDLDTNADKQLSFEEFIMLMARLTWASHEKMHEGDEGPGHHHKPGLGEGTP

T2: arachidonic acid-binding heteromer (non-covalent complex of two MRP8 sub-units, SEQ ID NOs: 1-2, and one MRP14 sub-unit, SEQ ID NOs: 3-4) (Homo sapiens, UniProt P05109+P06702)
T2 construct: no tag
T2 sequence (P05109 1-93): T1 sequence (P05109 1-93) 1
T2 sequence (P06702 1-114): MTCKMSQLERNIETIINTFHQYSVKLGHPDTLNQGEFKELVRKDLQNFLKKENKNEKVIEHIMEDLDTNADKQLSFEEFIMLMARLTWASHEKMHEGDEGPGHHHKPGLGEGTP

T3: MRP14 (migration inhibitory factor related protein 14) (human, UniProt P06702 1-114)
T3 construct: Sub-unit of the heteromer, seen by SDS-PAGE of the purified native complex; also called MRP14 sub-unit
T3 sequence: T2 sequence (P06702 1-114)

B1: MRP8 (migration inhibitory factor related protein 8) (other)
chain: T1 sequence (P05109 1-93) 1
notes: Sub-unit of the heteromer, seen by SDS-PAGE of the purified native complex; also called MRP8 sub-unit

Columns and labels:
[1] = system: E-FABP (epidermal fatty acid-binding protein) of keratinocytes; conditions: Siegenthaler, G. et al. (1994) Biochem. J. 302, 363-371; cited from earlier work
[2] = molecular target: T1, arachidonic acid-binding heteromer (non-covalent complex of two MRP8 sub-units, SEQ ID NOs: 1-2, and one MRP14 sub-unit, SEQ ID NOs: 3-4; approx. 34 kDa), isola; assay: binding of radiolabelled ligand to heteromer by gel filtration (Superose 12, HPLC)
Method: Indeed, when a determined quantity of heteromer in solution is incubated in the presence of 600 nM of radiolabelled arachidonic acid, then analyzed through a filtration column over gel [(Superose 12) balanced with a Tris/HCl buffer containing 0.2M NaCl and connected to a HPLC], the radioactive peak that co-elutes elutes at 34 kDa and corresponds to the radiolabelled arachidonic acid-heteromer complex is 1.5 times greater than if the experiment were performed in the same conditions, but with 600 nM of radiolabelled oleic acid.
(§1) More particularly, this heteromer consists of two MRP8 sub-units and one MRP14 sub-unit. These two proteins, MRP8 and MRP14, are in particular described in the Odink et al., (1987) Nature 330, 80-82 publication.
(§2) The purification process of the heteromer that is implemented consists specifically of the following steps: approximately 5 g of psoriasis scales are homogenized in 15 ml of Tris/HCl buffer using a homogenizer (Polytron) then, the mixture is centrifuged at 100000 g for 1 hour at 4° C. The pellet is collected and suspended in 5 ml of the same buffer and centrifuged at 10000 g. The supernatant is eliminated. This washing operation is carried out two more times. […]

[3] = molecular target: T2, arachidonic acid-binding heteromer (non-covalent complex of two MRP8 sub-units, SEQ ID NOs: 1-2, and one MRP14 sub-unit, SEQ ID NOs: 3-4); assay: binding of linoleic acid to the heteromer (method not given)
[4] = molecular target: T1, arachidonic acid-binding heteromer (non-covalent complex of two MRP8 sub-units, SEQ ID NOs: 1-2, and one MRP14 sub-unit, SEQ ID NOs: 3-4; approx. 34 kDa), isola; assay: dissociation constant by carbon-dextran technique with radiolabelled ligand, Scatchard plot; conditions: comparison with E-FABP (Siegenthaler et al. 1994)
Method: These dissociation constants are obtained by carrying out measurements using the carbon-dextran technique. This technique is as follows: aliquot portions of 0.5 μg of heteromer in solution in 100 μl of Tris buffer (50 mM Tris/HCl, 25 mM NaCl, 2.5 mM EDTA, 1 mM DTT at pH 7.5) containing 0.5% of gelatin and 1% of DMSO are incubated for 1 hour at 37° C. in the presence of increasing quantities of radiolabelled ligand, i.e, 0-10 μM for the oleic acid and the arachidonic acid. Then, each aliquot portion is treated with 50 μl a mixture of carbon-dextran T40® (5% and 0.05% respectively) at 0° C. for 10 minutes, then centrifuged at 10000 g and the radioactivity of the supernatant is measured. A saturation curve is established, and the Kd is calculated using the Scatchard plot.
as §1
as §2, with “eliminated.” for “eliminated. This washing operation is carried out two more times.”

[5] = molecular target: T3, MRP14 (migration inhibitory factor …); assay: gel filtration (34 kDa, non-denaturing) against SDS-PAGE of the purified heteromer
Method: The fractions that co-elute with the radioactive peak are gathered, dialyzed through a 20 mM Tris/HCl buffer, pH of 8.0 and the solution is concentrated. This solution is passed through a […] ion exchange column (Resource Q) balanced with the last buffer. The elution in the form of a gradient is performed with this Tris buffer containing 0.5M of NaCl. In the same way as above, the column has been standardized and only the proteins that co-elute with the radioactive peak are gathered, dialyzed through a 100 mM sodium phosphate buffer with a pH of 7.0 and concentrated The last purification step is carried out on a filtration column (Superose 12) balanced with the phosphate buffer. The protein peak that elutes at 34 kDa corresponds to the purified heteromer.

Molecule | affinity for fatty acids (in words) [1] | further results
CCCCC/C=C\C/C=C\C/C=C\C/C=C\CCCC(=O)O [arachidonic acid] | weak or nonexistent affinity | radioactive peak of ligand-heteromer complex, ratio arachidonic acid to oleic acid ([2]; 600 nM radiolabelled arachidonic acid vs 600 nM radiolabelled oleic acid, peak at 34 kDa): 1.5 times; quantity of arachidonic acid bound relative to oleic acid ([2]; up to, general statement): up to 1.5 times
CCCCC/C=C\C/C=C\CCCCCCCC(=O)O [linoleic acid] | strong affinity | binding (in words) [3]: binds
CC/C=C\C/C=C\C/C=C\CCCCCCCC(=O)O [linolenic acid] | strong affinity | –
CCCCCCCC/C=C\CCCCCCCC(=O)O [oleic acid] | strong affinity | dissociation constant in relation to oleic acid compared with that of E-FABP for the same ligand [4]: less than that of the E-FABP
CCCCCCCCCCCCCCCCCC(=O)O [stearic acid] | strong affinity | –
B1 | – | binding result [5]: binds

— patent US6620790B2, “Isolated arachidonic acid-binding heteromer and its use in cosmetics and pharmaceutics” (Societe L'Oreal S.A., priority 1909, dated 2003)
